The test addresses T1, HSA (human serum albumin) (Homo sapiens, UniProt P02768).
T1 construct: gene ALB; mature single chain of 585 residues, N-terminal Asp, C-terminal Leu; untagged; monomer
Briefly: intrinsic fluorescence quenching, double-log fit. Type of test: binding. Particulars: Tris-HCl pH 7.4, room temperature, 30 min, ex 275 nm; ethanol stocks; KA unit not given. Also on record: unit not given here. From the text:
intrinsic fluorescence quenching, double-log fit on HSA (human serum albumin)

T1 sequence (P02768 25-609): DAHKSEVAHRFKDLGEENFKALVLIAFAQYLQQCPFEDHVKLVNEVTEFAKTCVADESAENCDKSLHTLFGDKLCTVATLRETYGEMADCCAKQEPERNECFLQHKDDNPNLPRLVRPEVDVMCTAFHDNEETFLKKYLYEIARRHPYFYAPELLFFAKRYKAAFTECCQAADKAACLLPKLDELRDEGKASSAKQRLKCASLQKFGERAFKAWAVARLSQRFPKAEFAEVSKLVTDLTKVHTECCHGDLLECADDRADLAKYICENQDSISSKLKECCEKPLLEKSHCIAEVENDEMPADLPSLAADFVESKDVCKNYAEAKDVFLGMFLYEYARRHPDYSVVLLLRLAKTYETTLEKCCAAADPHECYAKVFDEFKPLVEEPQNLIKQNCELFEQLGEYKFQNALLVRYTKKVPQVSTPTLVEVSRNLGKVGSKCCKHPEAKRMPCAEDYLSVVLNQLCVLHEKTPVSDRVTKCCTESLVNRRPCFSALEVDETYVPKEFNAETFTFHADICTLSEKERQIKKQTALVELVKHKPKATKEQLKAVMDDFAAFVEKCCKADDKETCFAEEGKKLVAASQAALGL

With `O=S(=O)(O)C(F)(F)C(F)(F)OC(F)(F)C(F)(F)C(F)(F)C(F)(F)C(F)(F)C(F)(F)C(F)(F)C(F)(F)Cl` [11Cl-PF3OUdS, 11–chloroeicosafluoro–3–oxaundecane–1–sulfonic acid], the “Binding Constant KA” value stood at 127.6145.

For the compound `O=S(=O)(O)C(F)(F)C(F)(F)C(F)(F)C(F)(F)C(F)(F)C(F)(F)C(F)(F)C(F)(F)F` [PFOS], the “Binding Constant KA” value turned out to be 394.639. For the compound `O=S(=O)(O)C(F)(F)C(F)(F)OC(F)(F)C(F)(F)C(F)(F)C(F)(F)C(F)(F)C(F)(F)Cl` [9Cl-PF3ONS, 9–chlorohexadecafluoro–3–oxanone–1–sulfonic acid], the “Binding Constant KA” value turned out to be 117.112. On to `O=S(=O)(O)C(F)(F)C(F)(F)C(F)(F)F` [PFPrS], for which the “Binding Constant KA” value is 79.4511. With `O=C(O)C(F)(F)C(F)(F)C(F)(F)F` [PFBA], the “Binding Constant KA” value is reported as 20.3657. On to `O=S(=O)(O)C(F)(F)C(F)(F)C(F)(F)C(F)(F)F` [PFBS], for which the “Binding Constant KA” value amounted to 116.4930. With `O=C(O)C(F)(F)C(F)OC(F)(F)C(F)(F)C(F)(F)OC(F)(F)F` (centres unmarked) [NaDONA, sodium dodecafluoro-3H–4,8–dioxanonanoate], the “Binding Constant KA” value was 93.0894. In the case of `O=S(=O)(O)C(F)(F)C(F)(F)C(F)(F)C(F)(F)C(F)(F)C(F)(F)F` [PFHxS], the “Binding Constant KA” value was 157.9429.

Values taken from article PMC10818824, “In Vitro and In Silico Analysis of the Bindings between Legacy and Novel Per- and Polyfluoroalkyl Substances and Human Serum Albumin” (Toxics, 2024).
